Test results published in patent US11673889B2, “Substituted imidazo[4,5-c][1,8]naphthyridines as phosphodiesterase inhibitors” (Nanjing Zhengxiang Pharmaceuticals Co., Ltd., priority 2019, dated 2023).
pIC50: −log10 of the molar value.

What was measured:
ENPP-1, MDA-MB-231 cells = biological target: T1, ENPP-1, MDA-MB-231 cells (Homo sapiens, UniProt P22413); assay: cell-based; conditions: for inhibition at 20 µM: MDA-MB-231, read-out: % Inhibition (at 20 μM)
T1 sequence (P22413 1-925): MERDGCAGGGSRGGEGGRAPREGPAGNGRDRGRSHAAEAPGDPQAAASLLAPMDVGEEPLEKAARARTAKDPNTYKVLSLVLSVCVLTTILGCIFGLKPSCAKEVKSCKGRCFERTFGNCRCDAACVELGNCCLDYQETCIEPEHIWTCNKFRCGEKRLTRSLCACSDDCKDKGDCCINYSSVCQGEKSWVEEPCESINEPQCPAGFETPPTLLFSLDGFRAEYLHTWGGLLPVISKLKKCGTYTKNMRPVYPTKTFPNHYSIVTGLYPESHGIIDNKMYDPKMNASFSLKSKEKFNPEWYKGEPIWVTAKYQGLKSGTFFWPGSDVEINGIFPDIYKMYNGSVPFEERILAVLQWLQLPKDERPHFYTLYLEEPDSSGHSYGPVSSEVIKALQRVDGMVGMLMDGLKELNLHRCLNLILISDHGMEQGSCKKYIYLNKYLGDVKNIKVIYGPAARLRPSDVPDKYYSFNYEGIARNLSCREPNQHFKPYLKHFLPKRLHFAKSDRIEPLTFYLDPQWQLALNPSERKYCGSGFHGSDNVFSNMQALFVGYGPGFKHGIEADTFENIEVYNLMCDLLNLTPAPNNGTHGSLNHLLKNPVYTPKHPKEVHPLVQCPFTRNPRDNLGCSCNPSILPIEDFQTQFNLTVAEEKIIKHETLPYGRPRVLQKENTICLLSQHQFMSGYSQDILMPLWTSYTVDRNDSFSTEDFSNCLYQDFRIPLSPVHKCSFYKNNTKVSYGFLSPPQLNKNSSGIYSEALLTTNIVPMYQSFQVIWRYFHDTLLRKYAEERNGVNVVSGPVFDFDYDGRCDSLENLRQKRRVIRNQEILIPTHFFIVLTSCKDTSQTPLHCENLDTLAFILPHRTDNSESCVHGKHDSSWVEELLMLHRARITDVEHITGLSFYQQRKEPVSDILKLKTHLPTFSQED

human soluble ENPP1 [1] = biological target: T2, human soluble ENPP1 (Homo sapiens, UniProt P22413); assay: ENPP1 activity assay using p-Nitrophenyl-5′-AMP as a substrate; format: biochemical
T2 construct: 20 ng of human soluble ENPP1
T2 sequence (P22413 103-925 limits assumed): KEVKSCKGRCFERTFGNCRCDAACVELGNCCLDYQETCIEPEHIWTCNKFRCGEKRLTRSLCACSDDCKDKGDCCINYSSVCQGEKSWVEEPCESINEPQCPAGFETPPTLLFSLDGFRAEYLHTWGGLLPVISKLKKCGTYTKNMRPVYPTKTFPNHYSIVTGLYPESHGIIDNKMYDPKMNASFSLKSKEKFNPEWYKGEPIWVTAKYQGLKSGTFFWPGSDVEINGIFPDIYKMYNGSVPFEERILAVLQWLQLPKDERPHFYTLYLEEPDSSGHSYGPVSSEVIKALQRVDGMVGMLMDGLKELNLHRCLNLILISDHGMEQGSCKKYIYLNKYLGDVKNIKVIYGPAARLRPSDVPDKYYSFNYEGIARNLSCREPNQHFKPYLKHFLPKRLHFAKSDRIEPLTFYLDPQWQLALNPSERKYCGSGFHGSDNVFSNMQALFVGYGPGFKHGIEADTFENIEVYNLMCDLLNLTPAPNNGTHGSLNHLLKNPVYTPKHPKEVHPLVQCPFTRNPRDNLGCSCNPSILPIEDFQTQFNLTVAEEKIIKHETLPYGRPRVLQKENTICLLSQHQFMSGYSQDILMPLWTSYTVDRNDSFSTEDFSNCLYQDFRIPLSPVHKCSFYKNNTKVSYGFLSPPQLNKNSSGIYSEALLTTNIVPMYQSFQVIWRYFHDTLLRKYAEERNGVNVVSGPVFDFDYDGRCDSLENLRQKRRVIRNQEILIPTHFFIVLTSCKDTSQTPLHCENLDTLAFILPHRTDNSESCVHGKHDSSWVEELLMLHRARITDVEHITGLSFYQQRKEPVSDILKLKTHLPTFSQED
Method in brief: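 Absorbance at 405 nm tracks p-nitrophenol from AMP-pNP hydrolysis after 1 h at room temperature, substrate added as 3 mM (2× final) following 30 min enzyme–compound preincubation. Enzyme: 35 ng human soluble ENPP1. IC50 fitted (variable-slope four-parameter) from percent inhibition normalized to max and blank.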

[2] = tested on: cGAMP activated THP-1 cells; assay: ENPP1 inhibitors screening on cGAMP activated THP-1 cells (IFN-β ELISA); format: cell-based; conditions: THP-1 cells with 2′3′-cGAMP, 24 hours, FIGS. 1A-1E
Method: THP-1 cells from bulk cultures were counted and suspended in RPMI 1640, 20% FBS, 2.5 mM L-alanyl-L-glutamine at a concentration of 5.5×10^6 cells/mL. The THP-1 cells were subsequently seeded into 96 well round bottom plates 180 μL/well (1×10^6 cells per well), incubated for 1 hour at 37° C., 5% CO2.
Test compounds were screened in triplicate on THP-1 cells at a final concentration of 10 μM. A working solutions at 0.2 mM. Each well contains 180 μL of THP-1 cell suspension, 10 μL (30 μM, 40 μM or 50 μM) 2′3′-cGAMP (InvivoGen, catalog #tlrl-nacga23) solution (600 μM, 800 μM or 1000 μM) and 10 μL test compound working solution. Incubate for 1 hour.
Vehicle control wells contain 2′3′-cGAMP at concentrations of […] and 50 μM without any test compound. Positive control, 2′3′-cGAMP or 2′,3′-cGAM(PS)2 (Rp/Sp) (InvivoGen, cat #tlrl-nacga2srs) at 40 μM and 80 μM (final concentration).
The final assay volume were 200 μL/well contains: 1) THP-1 cells=180 μL, 2) test compounds=10 μL, 3) 2′3′-cGAMP or 2′3′-cGAM(PS)2 (Rp/Sp) or vehicle control=10 μL.
After incubation for 24 hours at 37° C., 5% CO2, the supernatants were harvested at 200×g for 10 minutes. Cell culture supernatants were then transferred to a clean plate and stored at −80° C. until ready to analyze for IFN-β levels. The IFN-β levels in cell culture supernatants were determined by ELISA kits (PBL Assay Science, catalog #41410) according to the manufacturer's instructions.
The % increase measured for IFN-β in cells treated by the test compounds 12, 48, 89, 103 and 121 relative to that of untreated cells were tested (as shown in FIGS. 1A-1E).

human soluble ENPP1 [3] = biological target: T2, human soluble ENPP1; assay: ENPP1 activity assay using p-Nitrophenyl-5′-TMP as a substrate; format: biochemical
Method in brief: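 Percent inhibition, set against uninhibited-enzyme and blank wells, was fitted to a four-parameter variable-slope model for IC50. Chromogenic read-out was p-nitrophenol released from TMP-pNP, added as a 2 mM […] solution for 1 h at RT. Before that, 20 ng soluble ENPP1 sat 30 min with compound.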

Row | SMILES | pIC50 (ENPP-1, MDA-MB-231 cells) | inhibition at 20 µM (ENPP-1, MDA-MB-231 cells) [%] | pIC50 (human soluble ENPP1 [1]) | % increase measured for IFN-β relative to that of untreated cells [2] | pIC50 (human soluble ENPP1 [3])
1 | COc1ccc2c(ncc3[nH]c(=O)n(Cc4c(F)cc(S(N)(=O)=O)cc4F)c32)n1 [Compound 103, 3,5-difluoro-4-((7-methoxy-2-oxo-2,3-dihydro-1H-imidazo[4,5-c][1,8]naphthyridin-1-yl)methyl)benzenesulfonamide] | 7.47 | 87 | 10.22 | potently increased the IFN-β levels at very low concentrations | 10.05
2 | COc1ccc2c(ncc3[nH]c(=O)n(Cc4ccc(P(=O)(O)O)c(F)c4)c32)n1 [Compound 121, (2-fluoro-4-((7-methoxy-2-oxo-2,3-dihydro-1H-imidazo[4,5-c][1,8]naphthyridin-1-yl)methyl)phenyl)phosphonic acid] | 8.09 | 91 | 7.51 | potently increased the IFN-β levels at very low concentrations | 8.03
